The supplement of paper PMC10307832

Columns and labels:
Experiment in all cases: relative viability (nuclei count vs DMSO), 5 days (fraction); higher = more cells survive
NCI-H2023 = system: NCI-H2023
Procedure, shortened: (§1)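 Dosing by pin tool came one day after lung cancer cell lines were seeded in 1536-well plates, using either one drug or a fixed anchor-drug dose plus five library-drug doses (not always all listed) in √10 steps. After 5 days, nuclei were counted on 4× images. Relative viability is treated-well nuclei count divided by vehicle-well nuclei count, and values are medians of duplicate plates.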

NCI-H2085 = system: NCI-H2085
Procedure, shortened: as §1

NCI-H2170 = system: NCI-H2170
Procedure, shortened: as §1

NCI-H2347 = system: NCI-H2347
Procedure, shortened: as §1

NCI-H2405 = system: NCI-H2405
Procedure, shortened: as §1

NCI-H3122 = system: NCI-H3122
Procedure, shortened: as §1

NCI-H441 = system: NCI-H441
Procedure, shortened: as §1

NCI-H520 = system: NCI-H520
Procedure, shortened: as §1

NCI-H647 = system: NCI-H647
Procedure, shortened: as §1

PC-14 = system: PC-14
Procedure, shortened: as §1

RERF-LC-KJ = system: RERF-LC-KJ
Procedure, shortened: as §1

SW 900 = system: SW 900
Procedure, shortened: as §1

`Clc1ccc(Nc2nnc(Cc3ccncc3)c3ccccc23)cc1` [Vatalanib] + O=C(c1cc(Cc2n[nH]c(=O)c3ccccc23)ccc1F)N1CCN(C(=O)C2CC2)CC1 [Olaparib] (partner 8 µM) showed a relative viability (NCI-H2023; first compound 0.4 µM) of 0.447, a relative viability (NCI-H2023; first compound 1.265 µM) of 0.48 and a relative viability (NCI-H2023; first compound 4 µM) of 0.422. It also gave a relative viability (NCI-H2085; first compound 0.04 µM) of 0.839, a relative viability (NCI-H2085; first compound 0.1265 µM) of 0.81 and a relative viability (NCI-H2085; first compound 0.4 µM) of 0.812. For the same compound, the relative viability (NCI-H2085; first compound 1.265 µM) was 0.795, the relative viability (NCI-H2085; first compound 4 µM) was 0.727 and the relative viability (NCI-H2170; first compound 0.04 µM) was 0.623. For the same compound, the relative viability (NCI-H2170; first compound 0.1265 µM) was 0.656, the relative viability (NCI-H2170; first compound 0.4 µM) was 0.702 and the relative viability (NCI-H2170; first compound 1.265 µM) was 0.512. The relative viability (NCI-H2170; first compound 4 µM) was 0.556, the relative viability (NCI-H2347; first compound 0.04 µM) was 0.647 and the relative viability (NCI-H2347; first compound 0.1265 µM) was 0.538. The relative viability (NCI-H2347; first compound 0.4 µM) was 0.643, the relative viability (NCI-H2347; first compound 1.265 µM) was 0.623 and the relative viability (NCI-H2347; first compound 4 µM) was 0.597. It also gave a relative viability (NCI-H2405; first compound 0.04 µM) of 0.808, a relative viability (NCI-H2405; first compound 0.1265 µM) of 0.807 and a relative viability (NCI-H2405; first compound 0.4 µM) of 0.957. It also gave a relative viability (NCI-H2405; first compound 4 µM) of 0.87, a relative viability (NCI-H3122; first compound 0.04 µM) of 0.593 and a relative viability (NCI-H3122; first compound 0.1265 µM) of 0.668. It also gave a relative viability (NCI-H3122; first compound 0.4 µM) of 0.689, a relative viability (NCI-H3122; first compound 1.265 µM) of 0.592 and a relative viability (NCI-H3122; first compound 4 µM) of 0.598. It also gave a relative viability (NCI-H441; first compound 0.04 µM) of 0.546, a relative viability (NCI-H441; first compound 0.1265 µM) of 0.62 and a relative viability (NCI-H441; first compound 0.4 µM) of 0.51. It also gave a relative viability (NCI-H441; first compound 1.265 µM) of 0.561, a relative viability (NCI-H441; first compound 4 µM) of 0.553 and a relative viability (NCI-H520; first compound 0.04 µM) of 0.392. It also gave a relative viability (NCI-H520; first compound 0.1265 µM) of 0.361, a relative viability (NCI-H520; first compound 0.4 µM) of 0.37 and a relative viability (NCI-H520; first compound 1.265 µM) of 0.283. It also gave a relative viability (NCI-H520; first compound 4 µM) of 0.34, a relative viability (NCI-H647; first compound 0.04 µM) of 0.612 and a relative viability (NCI-H647; first compound 0.1265 µM) of 0.582. The relative viability (NCI-H647; first compound 0.4 µM) was 0.582, the relative viability (NCI-H647; first compound 1.265 µM) was 0.584 and the relative viability (NCI-H647; first compound 4 µM) was 0.531. It also gave a relative viability (PC-14; first compound 0.04 µM) of 0.192, a relative viability (PC-14; first compound 0.1265 µM) of 0.195 and a relative viability (PC-14; first compound 0.4 µM) of 0.295. The relative viability (PC-14; first compound 1.265 µM) was 0.276, the relative viability (PC-14; first compound 4 µM) was 0.309 and the relative viability (RERF-LC-KJ; first compound 0.04 µM) was 0.879. It also gave a relative viability (RERF-LC-KJ; first compound 0.1265 µM) of 1.04, a relative viability (RERF-LC-KJ; first compound 0.4 µM) of 0.913 and a relative viability (RERF-LC-KJ; first compound 1.265 µM) of 0.832. It also gave a relative viability (RERF-LC-KJ; first compound 4 µM) of 0.882, a relative viability (SW 900; first compound 0.04 µM) of 0.759 and a relative viability (SW 900; first compound 0.1265 µM) of 0.674. The relative viability (SW 900; first compound 0.4 µM) was 0.997, the relative viability (SW 900; first compound 1.265 µM) was 0.853 and the relative viability (SW 900; first compound 4 µM) was 0.93.
